# In PubChem BioAssay (NCI):
#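 Assay format: 96-well plates, 48-hour exposure. GI50 marks 50% less growth. TGI: total growth inhibition.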
# Assays:
# Assay in all cases: NCI-60 cell line screen, 48 h
# MDA-MB-231 breast = system: MDA-MB-231 breast
# KM12 colon = system: KM12 colon
# SW-620 colon = system: SW-620 colon
# M14 melanoma = system: M14 melanoma
# HCT-15 colon = system: HCT-15 colon
# MALME-3M melanoma = system: MALME-3M melanoma
# BT-549 breast = system: BT-549 breast
# SF-539 CNS = system: SF-539 CNS
# NCI-H522 lung = system: NCI-H522 lung
# LOX IMVI melanoma = system: LOX IMVI melanoma
Compound,GI50 (MDA-MB-231 breast),TGI (MDA-MB-231 breast),GI50 (KM12 colon),TGI (KM12 colon),GI50 (SW-620 colon),TGI (SW-620 colon),GI50 (M14 melanoma),TGI (M14 melanoma),GI50 (HCT-15 colon),TGI (HCT-15 colon),GI50 (MALME-3M melanoma),TGI (MALME-3M melanoma),GI50 (BT-549 breast),TGI (BT-549 breast),GI50 (SF-539 CNS),TGI (SF-539 CNS),GI50 (NCI-H522 lung),TGI (NCI-H522 lung),GI50 (LOX IMVI melanoma),TGI (LOX IMVI melanoma)
COc1cc(Nc2nc3cc(N)cc(N)c3nc2-c2ccccc2)cc(OC)c1OC,11.1 µM,29.2 µM,10.6 µM,29.5 µM,24.1 µM,> 100 µM,19.6 µM,44.9 µM,15.3 µM,45.4 µM,13 µM,28.2 µM,16.8 µM,33.6 µM,14.8 µM,28.9 µM,18.2 µM,53.1 µM,18.5 µM,49 µM
CC(N)C(Cc1ccc(Cl)cc1)c1ccc(Cl)cc1 (stereo not drawn),4.26 µM,16.8 µM,8.48 µM,22.6 µM,4.46 µM,16.9 µM,5.53 µM,18.9 µM,4.15 µM,17.5 µM,8.17 µM,22.1 µM,13.7 µM,28.1 µM,13.3 µM,26.8 µM,11.4 µM,26.1 µM,5.56 µM,18.9 µM
CC(C)(CN1CCCCC1)C(=O)/C=C/c1ccc(/C=C/C(=O)C(C)(C)CN2CCCCC2)cc1,–,0.476 µM,–,1.35 µM,–,0.463 µM,–,3.26 µM,–,0.703 µM,–,2.24 µM,–,3.35 µM,–,1.55 µM,–,0.167 µM,–,0.856 µM
NS(=O)(=O)c1ccc(Nc2cc(-c3cccc(O)c3)[nH]n2)cc1,18 µM,> 25 µM,> 23.7 µM,> 25 µM,> 25 µM,> 25 µM,> 25 µM,> 25 µM,> 25 µM,> 25 µM,> 25 µM,> 25 µM,> 24.1 µM,> 25 µM,20.5 µM,> 25 µM,22.6 µM,> 25 µM,> 25 µM,> 25 µM
Cc1cccc(N(C)C(=O)[C@@H]2[C@H](O)CCN2c2nc(C)cc(C(F)(F)F)c2C#N)c1,19.3 µM,46 µM,28.2 µM,> 100 µM,37.8 µM,> 100 µM,16.3 µM,34.5 µM,27.9 µM,> 100 µM,19.9 µM,59 µM,15.6 µM,45.2 µM,15.9 µM,32.2 µM,10.7 µM,32 µM,3.61 µM,27.3 µM
COc1ccc2c(c1)/C(=C\c1c(-c3cc(OC)ccc3OC)nc3sc(C)cn13)C(=O)N2C,16.7 µM,96.7 µM,37.7 µM,> 100 µM,42.6 µM,> 100 µM,26.1 µM,71.4 µM,33.9 µM,> 100 µM,> 100 µM,> 100 µM,32.3 µM,> 100 µM,32.9 µM,> 100 µM,29.6 µM,> 100 µM,23.9 µM,83.5 µM
COC(=O)c1n[nH]c(C)c1N=NN(C)CCC#N,–,62.8 µM,–,51.4 µM,–,34 µM,–,> 100 µM,–,32.1 µM,–,34.6 µM,–,28.6 µM,–,30.3 µM,–,25.1 µM,–,> 100 µM
CCN(Cc1ccc(C)cc1)c1ccc(CO)c(Cl)c1,12.5 µM,29.6 µM,14.6 µM,29.6 µM,0.763 µM,16.5 µM,10.5 µM,23.7 µM,6.41 µM,23.2 µM,15.5 µM,32.2 µM,5 µM,19 µM,14.2 µM,28.3 µM,11.5 µM,25.7 µM,7.05 µM,19.9 µM
CC1=CC(=O)C2=C(C)CCC3C(C)C(=O)OC3C12 (stereo not drawn),–,> 100 µM,–,> 100 µM,–,> 100 µM,–,> 100 µM,–,> 100 µM,–,> 100 µM,–,> 100 µM,–,> 100 µM,–,> 100 µM,–,> 100 µM
CCN(CC)c1ccc(/C=N/NC(=O)CSc2nc3ccccc3c(=O)n2CCc2ccc(S(N)(=O)=O)cc2)c(O)c1,2.27 µM,50.2 µM,1.56 µM,> 100 µM,3.12 µM,> 100 µM,0.754 µM,7.2 µM,2.82 µM,> 100 µM,3.26 µM,> 100 µM,2.21 µM,> 100 µM,2.42 µM,66.5 µM,3.17 µM,> 100 µM,1.09 µM,6.66 µM
CC(=O)c1ccc2c(c1)c1cc(C(C)=O)ccc1n2CCNC(C)C,0.516 µM,3.16 µM,0.427 µM,3.4 µM,0.249 µM,2.34 µM,0.358 µM,1.72 µM,0.352 µM,3.82 µM,0.23 µM,0.596 µM,1.29 µM,3.97 µM,0.478 µM,2.02 µM,0.257 µM,1.13 µM,0.211 µM,0.526 µM
C/C(=N\NC(=S)N1CCCCC1)c1ccccn1,0.123 µM,6.33 µM,0.0634 µM,4.72 µM,0.0142 µM,7.18 µM,< 0.0148 µM,2.23 µM,< 0.0169 µM,12.6 µM,0.145 µM,3.05 µM,0.745 µM,5.27 µM,0.257 µM,6.87 µM,0.136 µM,1.51 µM,< 0.0106 µM,9.03 µM
CCC(C)[C@H]1O[C@]2(CC[C@@H]1C)C[C@@H]1C[C@@H](C/C=C(\C)[C@@H](OC3C[C@H](OC)C(O[C@H]4C[C@H](OC)[C@@H](O)[C@H](C)O4)[C@H](C)O3)[C@@H](C)/C=C/C=C3\CO[C@@H]4[C@H](O)C(C)=C[C@@H](C(=O)O1)[C@]34O)O2 (stereo partly drawn),2.31 µM,6.85 µM,3.77 µM,14 µM,3.44 µM,13.8 µM,3.15 µM,11.2 µM,2.74 µM,10.2 µM,2.74 µM,14.5 µM,2.73 µM,7.3 µM,1.91 µM,3.96 µM,–,–,2.3 µM,5.79 µM
